In series [1] the test system is zinc-insufficient oocytes. The series is described as follows: Spindle phenotype scoring after IVM in TPEN with proteasome inhibitor MG132 added after 10 h. The settings on record: TPEN 10 h, then TPEN + 20 μM MG132 6 h. It counts as cell-based, mouse. As for the experimental part: For IVM studies, immature female CD1 mice (17 to 21 day old) were injected with 5IU equine chorionic gonadotropin (eCG) (Calbiochem, La Jolla, CA) in 100 μL sterile phosphate-buffered saline (PBS), intraperitoneally. After 44 to 48 hours, mice were anesthetized using isoflurane and euthanized by cervical dislocation. Dissected ovaries were placed in Leibovitz L-15 medium containing 1% FBS (L-15/FBS) and 0.2mM 3-isobutyl-1-methylxanthine (IBMX), and large antral follicles were punctured using 28 gauge needles to release cumulus oocyte complexes (COCs). COCs were washed through several drops of culture medium consisting of Minimum Essential Medium (MEM)-alpha with GLUTAMAX supplemented with 10% FBS, 1.5IU/mL human chorionic gonadotropin (hCG), and 5ng/mL epidermal growth factor and placed in culture medium with or without 10 μM N,N,N′,N′-tetrakis(2-pyridylmethyl) ethylenediamine (TPEN). In some experiments Z-Leu-Leu-Leu-al (MG132) was added to culture medium at 20 μM. COCs were cultured in drops of pre-equilibrated medium covered with embryo quality mineral oil at 37° C. in 5% CO2 with a humid environment. Ovulated MII eggs were collected from 4 to 6 week old mice primed with 5IU PMSG followed 48 h later by 5IU hCG. Oviducts were dissected into L-15/FBS, and eggs were removed and treated with 0.03% (w/v) hyaluronidase to remove cumulus cells. Eggs were washed and cultured in potassium simplex optimized medium (KSOM) (Millipore, Billerica, MA) covered with embryo quality mineral oil at 37° C. in 5% CO2.
Oocytes were denuded of cumulus cells and fixed in a microtubule stabilizing buffer (Ibanez et al., 2005) containing 2% formaldehyde and 1% Triton X-100 for 30 min at 37° C. Oocytes were washed and blocked in PBS containing 0.1M glycine, 3mg/mL BSA, 0.01% Tween 20, and 0.01% sodium azide for at least 1 h and were stored in blocking solution at 4° C. for up to 2 weeks. Oocytes were incubated with anti-tubulin antibody (1:100) for 1 h at 37C. followed by three washes in blocking solution. They were then incubated for 1 h in AlexaFluor-488 conjugated anti-mouse secondary antibody (5μg/mL) and rhodamine-phalloidin (2U/mL), washed three additional times, and mounted in VECTASHIELD with DAPI. Microscopy was performed using a Leica SP5 inverted laser-scanning confocal microscope with a 63x oil immersion objective (Leica Microsystems, Heidelberg, Germany). Images were processed using LAS AF software (Leica Microsystems).
It has been previously shown that zinc-insufficient oocytes fail to increase MPF activity following the first meiotic division and have low CCNB1 protein levels (Bernhardt et al., 2010). In order to determine whether this decrease in CCNB1 is the major cause of the observed meiotic arrest phenotype, it was tested whether increasing CCNB1 would be sufficient to rescue MII entry in zinc-insufficient oocytes by inhibiting the proteasome at the end of the MI-MII transition, thereby halting CCNB1 degradation. Experimental oocytes were cultured for 10 hours in TPEN-containing medium and were then transferred into medium containing TPEN as well as the proteasome inhibitor Z-Leu-Leu-Leu-al (MG132) at 20 μM concentration. MG132 was added after first polar body extrusion, because earlier addition would result in MI arrest due to failure to degrade APC/C targets that prevent cell division. Oocytes were cultured for an additional 6 h in the presence of MG132 to allow time for CCNB1 reaccumulation, for a total 16 h IVM culture period. Proteasome inhibition led to a partial rescue of the zinc insufficiency phenotype. 69% of treated oocytes formed spindle-like structures, and none were in telophase I arrest, despite being cultured in the presence of TPEN for the entire culture period (FIG. 2, A; Table 2).
A majority of zinc-insufficient oocytes treated with MG132 following the first meiotic division transition progress beyond telophase-I arrest and form MII spindle-like structures. […]

The next series concerns MPF activity. Put plainly: Histone H1 kinase assay on single oocytes/eggs (MPF activity). The class given is cell-based, mouse. The settings on record: TPEN 10 h, then TPEN + 20 μM MG132 6 h. Here is the method:
Histone H1 and myelin basic protein (MBP) dual kinase assays were performed as previously described (Svoboda et al., 2000). Dried gels were exposed to Kodak BIOMAX MR films for 12 to 72 hours at −80° C. using Kodak intensifying screens; films were developed, scanned, and analyzed using ImageJ software. Assays were performed on single oocytes, and densitometric analysis is expressed relative to levels in control eggs.

The next series has as its system CCNB1. The series is described as follows: Western blot for CCNB1 in oocytes. The class given is cell-based, mouse. Conditions: TPEN 10 h, then TPEN + 20 μM MG132 6 h. Here is the method: Western blotting was performed essentially as previously described (Bernhardt et al., 2010). Briefly, 15 to 50 cumulus-denuded oocytes were transferred in a minimal amount of medium to microcentrifuge tubes and immediately lysed in 8 μL of 1x SDSPAGE Sample Buffer (Laemmli, 1970). SDS-PAGE gels were run using the Invitrogen NuPAGE system and transferred to Immobilon-P PVDF membranes (Millipore, Billerica, MA). Blocking and antibody incubations were in 2% w/v ECL Advanced Blocking Reagent (Amersham) in TBS-T (20mM Tris, pH7.4, 137mM NaC1, 0.1% Tween20 v/v). Anti-CCNB1antibody was diluted 1:500, anti-FBXO43 was used at 1:1000 dilution, and anti-tubulin antibody was used at 1:10,000. HRP-conjugated secondary antibodies were diluted 1:10,000. Detection was performed using Amersham ECL Advanced detection reagent. BIOMAX MR films (Kodak, Rochester, NY) were exposed and developed, or an Alpha-Innotech (San Learndo, CA) MultiImage II system was used.

In a further series the test system is MII eggs. Put plainly: Activation of in vivo ovulated MII eggs (SrCl2, TPEN, ZnPT pre-treatment). As for the experimental part:
Ovulated MII eggs were collected as described above. Eggs were transferred to KSOM medium with or without 10 μM ZnPT (1:1000 dilution of a 10 mM stock in DMSO) for exactly 5 minutes. Eggs were then washed in KSOM and allowed to recover for 10-15 minutes prior to activation. For SrCl2 activation, eggs were transferred to drops of calcium-free KSOM containing 10 mM SrCl2 for 2 hours, followed by 4 additional hours of culture in calcium-containing KSOM without SrCl2. TPEN activation was performed as previously described (Kim et al., 2011); eggs were cultured for 6 hours in KSOM containing 10 μM TPEN. Unactivated controls were cultured in KSOM for the same 6 hour time period to assess levels of spontaneous parthenogenesis.
MII eggs were treated with the ionophore zinc pyrithione (ZnPT) for 5 minutes to increase intracellular zinc. Following a 10-15 minute recovery period, eggs were then treated with activating agents SrCl2 or TPEN.

“Also recorded” adds a separate entry of the source. Peptide text beside a SMILES is read from it. * marks the point of attachment. Cbz = O=C(OCc1ccccc1)*

As to `CC(C)C[C@@H](C=O)NC(=O)[C@H](CC(C)C)NC(=O)[C@H](CC(C)C)NC(=O)OCc1ccccc1` [MG132, Z-Leu-Leu-Leu-al] (Cbz-Leu-Leu-Leu-aldehyde), the “oocytes with some degree of MII spindle formation (spindle-like structures)” value in series [1] is reported as 69%. Further, in series [1] (n=26), the “MII (aligned metaphase plate)” value amounted to 19%, the other spindle phenotype was 15%, the “persisting midbody or chromatin mass” value was 15% and the “spindle with chr. scattered along length” value is recorded as 19%. Besides, in series [1] (n=26), the “spindle with ≦3 chr. out of place” value turned out to be 31%. For the same compound, the “MPF activity (histone H1 kinase) compared to oocytes cultured with TPEN alone” value with MPF activity is on record as “increased”. Further, the CCNB1 protein levels entry in the series on CCNB1 is “only partially restores; also recorded: only slightly increased”.
As for `[Cl-].[Cl-].[Sr+2]` [SrCl2], the “egg activation (second polar body and PN or PN-like structures)” value in the series with MII eggs (control MII eggs, by 6 hours post activation, 10 mM SrCl2 2 h or 10 μM TPEN 6 h) is given as “activated normally”.
Regarding zinc pyrithione [ZnPT], in the series on MII eggs (10 μM ZnPT 5 minutes, unactivated eggs and SrCl2-treated eggs, 6 hours of culture), the “MII spindle organisation after ZnPT” value is given as “caused spindle abnormalities”. In addition, the “egg activation by TPEN after ZnPT pre-treatment” value in the series on MII eggs (MII eggs, 10 μM ZnPT 5 minutes, then 10 μM TPEN 6 h) was “formed second polar bodies and PN-like structures”. In the series on MII eggs (MII eggs, 10 μM ZnPT 5 minutes, then 10 mM SrCl2), the “egg activation by SrCl2 after ZnPT pre-treatment” value is on record as “did not show signs of activation”.

Values taken from patent US8772029B2, “Modulation of oocyte meiotic progression and oocyte activation” (Northwestern University, priority 2011, dated 2014).
